The test deals with T1, Full-length glucokinase (beta cell isoform) (Homo sapiens, UniProt P35557).
T1 construct: Full-length glucokinase (beta cell isoform) was His-tagged at N-terminus; His tag (N); made in house; host or cells: E. coli BL21(DE3) carrying the pBCGK vector
T1 sequence (P35557 1-465): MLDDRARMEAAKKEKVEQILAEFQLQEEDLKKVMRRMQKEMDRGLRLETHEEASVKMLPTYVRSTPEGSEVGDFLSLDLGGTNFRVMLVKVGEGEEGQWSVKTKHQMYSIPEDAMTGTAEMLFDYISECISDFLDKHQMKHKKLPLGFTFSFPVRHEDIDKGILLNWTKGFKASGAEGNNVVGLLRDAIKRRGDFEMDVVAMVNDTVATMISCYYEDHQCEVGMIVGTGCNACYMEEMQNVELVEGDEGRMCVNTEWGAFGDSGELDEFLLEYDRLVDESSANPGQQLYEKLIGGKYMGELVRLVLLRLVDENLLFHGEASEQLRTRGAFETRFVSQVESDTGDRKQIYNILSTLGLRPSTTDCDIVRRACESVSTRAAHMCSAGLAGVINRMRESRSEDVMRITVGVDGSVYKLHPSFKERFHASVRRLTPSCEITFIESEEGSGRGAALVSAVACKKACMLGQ
The experiment in a line: In vitro glucokinase activation assay (PK/LDH coupled, NADH depletion at 340 nm). The test is classed as biochemical. As to conditions: 5 mM glucose, 2.5 mM ATP; for pEC50: pH 7.1, room temperature; for Emax: pH 7.1, (Va/Vo−1)×100 fitted, read-out: Maximum Activation (%). The procedure:
Full-length glucokinase (beta cell isoform) was His-tagged at N-terminus and purified by a Ni column followed by size exclusion chromatography. A 320 mL column was packed in house using Superdex75 (Amersham Pharmacia, Carlsbad, Calif.) preparation grade resin. Glucose was obtained from Calbiochem (San Diego, Calif.) and other reagents were purchased from Sigma-Aldrich (St. Louis, Mo.).
All assays were performed in a Corning 384-well plate using Spectramax PLUS spectrophotometer (Molecular Devices, Sunnyvale, Calif.) at room temperature. The final assay volume was 40 μL. The buffer conditions used in this assay were as follows: 50 mM HEPES, 5 mM glucose, 2.5 mM ATP, 3.5 mM MgCl2, 0.7 mM NADH, 2 mM dithiothreitol, 1 unit/mL pyruvate kinase/lactate dehydrogenase (PK/LDH), 0.2 mM phosphoenolpyruvate, and 25 mM KCl. The buffer pH was 7.1. The test compound in dimethylsulfoxide solution was added to the buffer and mixed by a plate shaker for 7.5 minutes.
Glucokinase was added to the buffer mixture to initiate the reaction in the presence and absence of compound. The reaction was monitored by absorbance at 340 nm due to the depletion of NADH. The initial reaction velocity was measured by the slope of a linear time course of 0-300 seconds. The percentage of maximum activation was calculated by the following equation: % Maximum Activation=(Va/Vo−1)×100; wherein each of Va and Vo is defined as the initial reaction velocity in the presence and absence of the tested compound, respectively.
The glucokinase activities were measured as a function of compound concentrations.

pEC50: −log10 of the molar value.

In general, pEC50 refers to the negative decadic logarithm of the EC50, by convention in mol/L. As for `CCN(C)C(=O)c1ncc(Oc2cc(C(=O)Nc3ccn(C)n3)cc3oc(C)cc23)cn1` [Example 6, N-ethyl-N-methyl-5-(2-methyl-6-((1-methyl-1H-pyrazol-3-yl)carbamoyl)benzofuran-4-yloxy)pyrimidine-2-carboxamide], the pEC50 is 6.42 and the Emax amounted to 54.1%.

Turning to `Cc1cc2c(Oc3cnc(C(=O)N(C)C)nc3)cc(C(=O)Nc3ccn(C)n3)cc2o1` [Example 4, N,N-dimethyl-5-(2-methyl-6-((1-methyl-1H-pyrazol-3-yl)-carbamoyl)benzofuran-4-yloxy)pyrimidine-2-carboxamide], the pEC50 is 6.20 and the Emax was found to be 63.9%.

For the compound `CCN(C)C(=O)c1ncc(Oc2cc(C(=O)Nc3cnc(C)cn3)cc3oc(C)cc23)cn1` [Example 5, N-ethyl-N-methyl-5-(2-methyl-6-((5-methylpyrazin-2-yl)carbamoyl)benzofuran-4-yloxy)pyrimidine-2-carboxamide], the pEC50 was 6.26 and the Emax amounted to 57.6%.

For the compound `CCN(C)C(=O)c1cnc(Oc2cc(C(=O)Nc3cnc(C)cn3)cc3oc(C)cc23)cn1` [Example 7, N-ethyl-N-methyl-5-(2-methyl-6-((5-methylpyrazin-2-yl)carbamoyl)-benzofuran-4-yloxy)pyrazine-2-carboxamide], the pEC50 is 6.32 and the Emax is 63.4%.

Take `COc1cnc(NC(=O)c2cc(Oc3cnc(C(=O)N(C)C)nc3)c3cc(C)oc3c2)cn1` [Example 3, 5-(6-((5-methoxypyrazin-2-yl)carbamoyl)-2-methylbenzofuran-4-yloxy)-N,N-dimethylpyrimidine-2-carboxamide]: the pEC50 was 6.34 and the Emax amounted to 69.5%.

For the origin of these results see US8735396B2, “Benzofuranyl derivatives” (Pfizer Inc., priority 2009, dated 2014).
